One data set deals with T98g cells. Nature of the data set: Cell viability assay (WST-1), toxic potency and efficacy at T98g cells. The format is cell-based. The conditions noted are these: Homo sapiens, 72 h. Here is the method:
(§1) Cells were plated media supplemented with 10% serum in 96-well plates (10^4 cells per wellI; 0.1 ml per well). Once they reached ˜70% confluence, they were rinsed with PBS and kept for an additional 24 hrs in media supplemented with 1% serum, at which time drugs or vehicle (DMSO, 0.1%, prepared in 10 μl serum-free media) were directly added to each well. After 3 days, cell viability was assessed using the Cell Proliferation Reagent WST-1 (Roche, Indianapolis, Ind.). Briefly, WST-1 reagent (10 μl) was added to each well for 3 hrs at 37° C. with 5% CO2 and WST-1 products were read at 450 nm using Packard SpectraCount™.
Because the strongest toxic effect of WIN55212-2 was measured in T98g cells, these cells are used as readout to study the structure activity relationship (SAR) of AAI compounds at inducing cell death through AAI receptors.

Data set [1] concerns cardiac and motorneuron progenitors. Nature of the data set: Toxic profile in progenitor cells. The conditions noted are these: compared with astrocytoma cell lines. The format is cell-based. Here is the method: (§2) JWH-451 was tested for toxicity in cells expressing GPR124.
The test system of data set [2] is mouse neurons in primary culture. Nature of the data set: Toxic profile in neurons in primary culture. The format is cell-based.
The target in the next data set is T1, CB2 (Mus musculus, UniProt P47936).
T1 construct: plasmids containing full coding region of mouse CB1 and CB2; expressed in transfected cells
T1 sequence (P47936 whole entry): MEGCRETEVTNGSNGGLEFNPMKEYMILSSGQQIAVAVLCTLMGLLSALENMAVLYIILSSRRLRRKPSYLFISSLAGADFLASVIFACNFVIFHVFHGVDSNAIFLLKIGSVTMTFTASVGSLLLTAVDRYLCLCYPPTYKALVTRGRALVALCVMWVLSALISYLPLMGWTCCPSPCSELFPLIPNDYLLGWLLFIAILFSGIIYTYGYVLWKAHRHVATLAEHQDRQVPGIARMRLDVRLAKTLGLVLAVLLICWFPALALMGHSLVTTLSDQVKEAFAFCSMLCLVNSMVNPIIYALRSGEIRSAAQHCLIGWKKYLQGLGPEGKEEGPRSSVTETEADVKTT
Nature of the data set: Radioligand competition binding, [3H]-CP55940, CB2-expressing HEK293 membranes. On the procedure: (§3) Stable CB1 and CB2 expressing HEK293 cell lines were generated using plasmids containing full coding region of mouse CB1 and CB2.
(§4) Fragments were amplified from total RNA of cell lines by reverse transcriptase-polymerase chain reaction (RT-PCR). Sequence was confirmed and the fragment was cloned into the EcoRI site of the pIRES2-eGFP-express vector. Cells were grown to approximately 80% confluence in 10 cm cell culture dishes, transfected with the cDNA pIRES-eGFP-vector containing the murine CB1 or CB2 receptor using LipofectAMINE™ 2000 reagent in the serum-free media Opti-MEM 1 according to the manufacturer's description. Cells were subject to FACS sorting 48 h after transfection and single cell sorted based on dsRed expression into 96-well plates. Of the dsRed expressing positive clones, 3 were validated for CB1 and CB2 protein expression by radioligand binding analysis (methods discussed below).
(§5) Cells were grown to 90% confluence, rinsed twice with 1×PBS and stored at −80° C. until further use. To prepare crude cellular membrane fractions, dishes were removed from −80° C. and thawed at room temperature for 5 min. Once thawed, cells were lysed with ice-cold homogenization buffer (50 mM Tris, 1 mM EDTA, 3 mM MgCl2) and gently scraped from the dish. Total cell lysates from 3-5 dishes were collected on ice in 3 ml of ice-cold homogenization buffer. Cells were homogenized at 6,500 rpm (PRO Scientific, Oxford, Conn.) twice for 10 sec and centrifuged at 11,500 rpm for 20 min at 4° C. Supernatants were discarded and cell pellets were resuspended in homogenization buffer and triturated 10 times in ice-cold homogenization buffer. Crude cellular membrane homogenates were stored at −80° C. until further use. On the day of experiments, frozen homogenates were thawed at room temperature, gently triturated 10 times and subsequently dounce homogenized in a 7 ml glass tissue grinder (Wheaton Science Products, Millville, N.J.) by 5 strokes while on ice. […]

The target in another data set is T2, CB1 (Mus musculus, UniProt P47746).
T2 construct: plasmids containing full coding region of mouse CB1 and CB2; expressed in transfected cells
T2 sequence (P47746 whole entry): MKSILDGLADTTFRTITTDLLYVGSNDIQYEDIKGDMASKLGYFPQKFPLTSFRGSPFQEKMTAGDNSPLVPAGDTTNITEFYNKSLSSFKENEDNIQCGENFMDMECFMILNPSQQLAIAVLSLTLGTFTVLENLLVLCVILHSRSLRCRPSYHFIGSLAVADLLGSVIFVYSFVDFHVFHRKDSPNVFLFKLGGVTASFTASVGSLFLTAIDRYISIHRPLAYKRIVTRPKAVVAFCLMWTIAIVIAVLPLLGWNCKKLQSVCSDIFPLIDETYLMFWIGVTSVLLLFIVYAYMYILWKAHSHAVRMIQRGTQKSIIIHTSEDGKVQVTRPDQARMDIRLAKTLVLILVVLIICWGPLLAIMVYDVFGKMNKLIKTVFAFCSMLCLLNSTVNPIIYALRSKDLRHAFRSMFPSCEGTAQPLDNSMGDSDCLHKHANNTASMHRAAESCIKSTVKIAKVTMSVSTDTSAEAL
Nature of the data set: Radioligand competition binding, [3H]-CP55940, CB1-expressing HEK293 membranes. Here is the method: as §3, §4, §5

In the next data set the test system is U251, A172 and GBM8. Nature of the data set: Toxic profile in human astrocytoma cell lines. The conditions noted are these: range over the three cell lines (FIG. 4), read-out: potency at killing human astrocytoma cell lines U251, A172 and GBM8. It is filed as cell-based. Here is the method:
as §1, §2

Consider 1 molecule from US9034895B2, “Composition and methods for treating glioblastoma” (University of Washington Through its Center for …, priority 2010, dated 2015).

With `CCn1c(C)c(C(=O)c2ccc(C)c3ccccc23)c2ccccc21` [JWH-451, 1-Ethyl-2-methyl-3-(4-methyl-1-napthoyl)indole], in the data set on T98g cells (read-out: Toxic potency at T98g cells (percent efficacy)), the Emax was 81%. Besides, the EC50 was 1.1 µM in the data set on T98g cells (read-out: Toxic potency at T98g cells potency μM); 2 to 4 µM in the data set with U251, A172 and GBM8. Further, the “toxic effect on cardiac and motorneuron progenitors” value in data set [1] was “much less toxic effect”. The “viability of mouse neurons in primary culture” value in data set [2] is given as “did not affect the viability”. Moreover, the “competition for [3H]-CP55940 binding at CB2” value on CB2 (FIG. 2) was “does not”. On CB2 (relative to WIN55212-2), the “lower affinity at CB2 receptors than WIN55212-2” value amounted to 100 fold. In addition, on CB1 (FIG. 2 (CB1 not shown)), the “competition for [3H]-CP55940 binding at CB1” value is on record as “does not”. For the same molecule, on CB1 (relative to WIN55212-2), the “lower affinity at CB1 receptors than WIN55212-2” value came out at 100 fold.
